Measurements published in paper PMC9317316, “Synthesis and Evaluation of Some New 4H-Pyran Derivatives as Antioxidant, Antibacterial and Anti-HCT-116 Cells of CRC, with Molecular Docking, Antiproliferative, Apoptotic and ADME Investigations” (Pharmaceuticals, 2022).
“And” between values parts separate entries of the source, which are not always exact repeats. Equal values may be shown once.

Columns and labels:
[1] = tested on: CDK2 gene in HCT-116 cells; experiment: qRT-PCR expression profile of the CDK2 gene in HCT-116 cells; format: cell-based, human; conditions: 24 h, relative to untreated cells (given as decreased x-fold)
Description: Second, the expression profiles of the CDK2 gene in HCT-116 cells treated with compounds 4d and 4k were determined. The results were compared with the positive control (cells treated with the well-known cytotoxic drug 5-fluorouracil) and the negative control (untreated cells).
Primers specific for the cyclin-dependent kinase-2 (CDK2) and caspase-3 genes were designed using primer blast (https://www.ncbi.nlm.nih.gov/tools/primer-blast/, accessed on 31 October 2021) or primer3 (https://primer3.ut.ee/, accessed on 31 October 2021) software. The selected genes covered the two main groups of the cyclin-dependent kinase-2 (CDK2) gene and the caspase-3 gene. Primers were used in RT-qPCR analysis to amplify fragments of 100–200 bp in length (Table 7).
Total RNA was extracted from each cell culture flask using the RNeasy extraction kit (RNeasy micro kit, cat. no. 74004). Up to 1 × 10^6 cells, depending on the cell line, were disrupted in buffer RLT and homogenized and disrupted. Ethanol was then added to the lysate, creating conditions that promote the selective binding of RNA to the RNeasy membrane. […] The amount of extracted RNA was quantified by estimating the absorbance at 260 nm. The purity of the RNA was checked by measuring the ratio of the absorbance at 260 and 280 nm, where a ratio ranging from 1.8 to 2.0 was taken to be pure. […]
Quantitative real-time PCR was carried out with the Thermal Cycler Rotorgene Real-Time System II (Rotorgene, South Korea) with the SYBR kit. […]
The relative expression levels through the average cycle threshold (CT) were successfully detected. Average CT values were calculated from the triplicate experiment conducted for each gene; the CT value was detected by subtracting the average CT value of genes from the CT value of actin and GAPDH genes. The relative expression levels of the target genes were calculated using the ΔΔ Ct method and the reference genes GAPDH for the cancer cell line. Finally, a fold change equation […] was used to estimate relative expression levels, while the standard deviation was calculated from the replicated experimental data.

B. cereus (ATCC 14579) [2] = experiment: Antibacterial agar diffusion method (inhibition zone); format: cell-based
Procedure, shortened: (§1)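 IC50 values come from residual colony counts versus initial inoculum: cells at 2 ×10^7 CFU/mL in sterile BHI incubated with compound under shaking, 60 min, 37 °C, then plated for 24 h. Zone assays used agar diffusion with ampicillin (10 µg/well) control.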

S. aureus (ATCC 25923) [3] = experiment: as above; format: cell-based
Procedure, shortened: as §1

[4] = tested on: P. aeruginosa (ATCC 27853); experiment: as above; format: cell-based
Procedure, shortened: as §1

[5] = tested on: K. pneumonia (ATCC 700603); experiment: as above; format: cell-based
Procedure, shortened: as §1

[6] = tested on: S. epidermidis (ATCC 14990); experiment: as above; format: cell-based
Procedure, shortened: as §1

B. cereus (ATCC 14579) [7] = experiment: Antibacterial viability (CFU) assay, IC50; format: cell-based; conditions: Bacillus cereus, ATCC14579
Procedure, shortened: as §1

S. aureus (ATCC 25923) [8] = experiment: Antibacterial viability (CFU) assay, IC50; format: cell-based; conditions: Staphylococcus aureus, ATCC25923
Procedure, shortened: as §1

S. enteric (ATCC 43972) = experiment: Antibacterial viability (CFU) assay, IC50; format: cell-based; conditions: read-out: IC50
Procedure, shortened: as §1

E. coli (ATCC 25966) = experiment: Antibacterial viability (CFU) assay, IC50; format: cell-based; conditions: Escherichia coli, ATCC25966; E. coil (ATCC 25966)
Procedure, shortened: as §1

[9] = tested on: P. aeruginosa (ATCC 27853); experiment: Antibacterial viability (CFU) assay, IC50; format: cell-based; conditions: Pseudomonas aeruginosa, ATCC27853
Procedure, shortened: as §1

E. faecalis (ATCC 29122) = experiment: Antibacterial viability (CFU) assay, IC50; format: cell-based; conditions: Enterococcus faecalis, ATCC29122
Procedure, shortened: as §1

[10] = tested on: K. pneumonia (ATCC 700603); experiment: Antibacterial viability (CFU) assay, IC50; format: cell-based; conditions: Klebsiella pneumoniae, ATCC700603
Procedure, shortened: as §1

B. subtilis (ATCC 6633) = experiment: Antibacterial viability (CFU) assay, IC50; format: cell-based; conditions: Bacillus subtilis, ATCC6633, B. subtilis (ATCC 6633)
Procedure, shortened: as §1

[11] = tested on: S. epidermidis (ATCC 14990); experiment: Antibacterial viability (CFU) assay, IC50; format: cell-based; conditions: Staphylococcus epidermidis, ATCC14990
Procedure, shortened: as §1

Structure (SMILES)	CDK2 transcript level, fold [1] [fold]	IZ (mm) (B. cereus (ATCC 14579) [2])	IZ (mm) (S. aureus (ATCC 25923) [3])	IZ (mm) [4] [mm]	IZ (mm) [5] [mm]	IZ (mm) [6] [mm]	IC50 (B. cereus (ATCC 14579) [7]) [µM]	IC50 (S. aureus (ATCC 25923) [8]) [µM]	IC50 (S. enteric (ATCC 43972)) [µM]	IC50 (E. coli (ATCC 25966)) [µM]	IC50 [9] [µM]	IC50 (E. faecalis (ATCC 29122)) [µM]	IC50 [10] [µM]	IC50 (B. subtilis (ATCC 6633)) [µM]	IC50 [11] [µM]
COc1cc(C2C(C#N)=C(N)OC(C)=C2C(=O)OCc2ccccc2)cc(OC)c1OC (stereo not drawn) [4d, 6-Amino-5-cyano-2-methyl-4-(3,4,5-trimethoxy-phenyl)-4H-pyran-3-carboxylic acid benzyl ester]	0.50	9.50 ± 0.71	9.00 mm and 9.00 ± 1.41 mm	6.5 ± 0.7	4.5 ± 0.7	8.50 ± 0.71	39.5 ± 0.8	24.4 ± 1.15	65.8 ± 2.29	88.7 ± 2.52	67.4 ± 1.37	29.1 ± 2.27	72.63 ± 0.69	40.3 ± 1.95	26.7 ± 1.15
CC1=C(C(=O)OCc2ccccc2)C(c2ccc(C#N)cc2)C(C#N)=C(N)O1 (stereo not drawn) [4k, 6-Amino-5-cyano-4-(4-cyano-phenyl)-2-methyl-4H-pyran-3-carboxylic acid benzyl ester]	0.45	7.00 ± 1.41	5.75 ± 0.35 mm	3.5 ± 0.7	2.5 ± 0.7	4.50 ± 0.71	48.1 ± 1.35	43.9 ± 0.57	75.5 ± 2.42	80.2 ± 4.31	73.2 ± 3.5	45.4 ± 0.57	77.8 ± 2.96	42.1 ± 2.48	50.2 ± 2.48
